Test results from patent US20260184710A1, “CASITAS B-LINEAGE LYMPHOMA PROTOONCOGENE B (CBL-B) DEGRADING COMPOUNDS AND ASSOCIATED METHODS OF USE” (Arvinas Operations, Inc., priority 2022, published 2026).

Assays:
Cbl-b [1] = biological target: T1, Cbl-b (Homo sapiens, UniProt Q13191); assay: Cbl-b Degradation Method A (FACS, anti-Cbl-b antibody staining); assay type: cell-based; conditions: Cbl-b-HiBit KI Jurkat Cells, incubated at least 20 hours; for DC50: half maximal degradation, read-out: Cbl-b Degredation Method A IC50; for Dmax: Jurkat, maximum degradation observed, read-out: Cbl-b Degredation Method A Dmax (%)
T1 construct: Cbl-b-HiBit KI Jurkat Cells were purchased from Promega; host or cells: Cbl-b-HiBiT knock-in Jurkat cells
Method: Cbl-b Degradation Method A
Cbl-b-HiBit KI Jurkat Cells were purchased from Promega, and cell media consisted of RPMI 1640 with 10% FBS and 1% pen/strep. The cells were counted, measured for viability, and 100 μL of the cell solution was into 96 well flat bottom plates at a ratio of 290,000 cells per 100 μL. Compounds were dissolved in DMSO to make a 10 mM stock solution, which was diluted with cell media. 100 μL of the diluted compound mixture was added to the wells. The plate was incubated for at least 20 hours at 37° C. and 5% CO2. After incubation, the plate was shaken at 700-750 RMP for 15-30 minutes to ensure cells were removed from the wells. The wells were transferred to a 96-well v-bottom plate and spun for 2200 RPM for 3 minutes. The supernatant was removed, cells re-suspended in 100 μL of the fixative, and subsequently incubated at room temperature for 15 minutes. Afterwards, 150 μL of DPBS was added to each well, and the cells were centrifuged at 2500 RPM for 3 minutes. The supernatant was removed and the plate was chilled on ice for 2-3 minutes. While still on the ice, 100 μL of Perm III was added to each well, the wells mixed, and subsequently left on the ice for another 15 minutes. Afterwards, the plate was removed from the ice, 150 μL of DBPS was added to each well, and the cells centrifuged at 2700 RPM for 3 minutes. The supernatant was removed, and an additional 200 μL of was DPBS was added to each well, followed by centrifuging at 2700 RPM for 3 minutes, after which the supernatant was removed. The anti-Cbl-b antibody was diluted 1:200 in 1× Perm Wash buffer and 50 μL of the antibody mixture was added to each well and mixed. After addition, the plate was incubated for 35-45 minutes at room temperature. After incubation, 200 μL of DPBS was added to each wells, and the plate centrifuged at 2700 RPM for 3 minutes, followed by the removal of the supernatant. The washing step was repeated by adding 200 μL of DPBS to each wells followed by centrifuge at 2700 RPM for 3 minutes and removal of the supernatant. The a-Rabbit-AF488 antibody was diluted 1:1000 in Perm Wash buffer, 50 μL of the dilution added to each well, and mixed. After mixing, the plate was incubated for 30 minutes at room temperature in the dark. Subsequently, the supernatant was removed, and 200 μL of DBPS added to the cells, which were then centrifuged at 2900 RPM for 4 minutes. The supernatant was removed, and an additional 95 μL of DBPS was added to the wells and mixed. The cells were then transferred to a round bottom polypropylene plate and analyzed using FACS with the parameters below:
The concentration of an exemplary compound that leads to half maximal degradation (DC50) as well as the maximum degradation observed (Dmax, conventionally expressed as a percentage of control) is shown below in Table 2.

Cbl-b [2] = biological target: T1, Cbl-b; assay: Cbl-b Degradation Method B (Nano-Glo HiBiT lytic detection); assay type: cell-based; conditions: Cbl-b-HiBit KI Jurkat Cells, incubated at least 6-24 hours; half maximal degradation; read-out: Cbl-b Degredation Method B IC50
Procedure, shortened: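 An 11-point, 3-fold compound dilution was applied for 6-24 hours to Jurkat cells carrying HiBiT-tagged endogenous Cbl-b. Lytic HiBiT luminescence quantified residual protein. Outputs are DC50 and Dmax relative to DMSO control.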

T1 sequence (Q13191 whole entry): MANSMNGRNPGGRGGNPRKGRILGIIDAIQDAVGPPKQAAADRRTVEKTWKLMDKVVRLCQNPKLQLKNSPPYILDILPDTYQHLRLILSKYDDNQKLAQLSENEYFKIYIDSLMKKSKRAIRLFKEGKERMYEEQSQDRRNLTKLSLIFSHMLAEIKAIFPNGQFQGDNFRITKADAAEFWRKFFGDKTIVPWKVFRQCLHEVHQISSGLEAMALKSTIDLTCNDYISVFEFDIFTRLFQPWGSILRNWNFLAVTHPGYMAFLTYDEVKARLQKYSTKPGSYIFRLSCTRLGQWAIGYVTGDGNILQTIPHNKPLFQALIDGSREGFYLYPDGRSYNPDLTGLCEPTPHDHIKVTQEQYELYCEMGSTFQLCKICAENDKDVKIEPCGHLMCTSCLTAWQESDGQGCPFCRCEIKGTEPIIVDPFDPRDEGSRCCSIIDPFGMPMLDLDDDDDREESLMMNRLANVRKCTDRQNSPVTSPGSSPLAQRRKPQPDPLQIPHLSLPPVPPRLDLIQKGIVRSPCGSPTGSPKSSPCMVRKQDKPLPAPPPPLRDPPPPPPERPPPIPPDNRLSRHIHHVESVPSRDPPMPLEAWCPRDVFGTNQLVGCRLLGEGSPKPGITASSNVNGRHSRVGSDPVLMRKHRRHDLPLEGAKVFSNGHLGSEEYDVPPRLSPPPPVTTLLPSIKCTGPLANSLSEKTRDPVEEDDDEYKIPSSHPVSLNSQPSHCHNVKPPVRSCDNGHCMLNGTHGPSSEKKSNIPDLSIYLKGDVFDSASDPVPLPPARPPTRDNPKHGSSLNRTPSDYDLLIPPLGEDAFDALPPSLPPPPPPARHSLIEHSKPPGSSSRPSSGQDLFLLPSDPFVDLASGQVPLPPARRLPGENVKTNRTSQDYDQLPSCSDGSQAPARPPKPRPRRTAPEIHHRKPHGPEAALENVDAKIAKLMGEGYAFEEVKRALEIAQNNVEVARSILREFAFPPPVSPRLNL

Row | DC50 (Cbl-b [1]) [nM] | Dmax (Cbl-b [1]) [%] | DC50 (Cbl-b [2]) [nM] | SMILES
1 | < 5 | > 70 |  | Cn1cnnc1CC1(c2cccc(N3Cc4c(cc(CN5CC6(CCN(C[C@H]7CC[C@H](OC8CCN(c9ccc%10c(c9F)CN(C9CCC(=O)NC9=O)C%10=O)CC8)CC7)CC6)C5)cc4C(F)(F)F)C3=O)c2)COC1 (stereo partly drawn) [Example 6, 3-[4-fluoro-1-oxo-5-(4-{[(1r, 4r)-4-[(2-{[2-(3-{3-[(4-methyl-4H-1,2,4-triazol-3-yl)methyl]oxetan-3-yl}phenyl)-3-oxo-7-(trifluoromethyl)-2,3-dihydro-1H-isoindol-5-yl]methyl}-2,7-diazaspiro[3.5]nonan-7-yl)methyl]cyclohexyl]oxy}piperidin-1-yl)-2,3-dihydro-1H-isoindol-2-yl]piperidine-2,6-dione]
2 | < 5 | > 70 |  | Cn1cnnc1CC1(c2cccc(N3Cc4c(cc(N5CC6(CCN(C[C@H]7CC[C@H](OC8CCN(c9ccc%10c(c9F)CN(C9CCC(=O)NC9=O)C%10=O)CC8)CC7)CC6)C5)cc4C(F)(F)F)C3=O)c2)COC1 (stereo partly drawn) [Example 7, 3-[4-fluoro-1-oxo-5-(4-{[(1r, 4r)-4-({2-[2-(3-{3-[(4-methyl-4H-1,2,4-triazol-3-yl)methyl]oxetan-3-yl}phenyl)-3-oxo-7-(trifluoromethyl)-2,3-dihydro-1H-isoindol-5-yl]-2,7-diazaspiro [3.5]nonan-7-yl}methyl)cyclohexyl]oxy}piperidin-1-yl)-2,3-dihydro-1H-isoindol-2-yl]piperidine-2,6-dione]
3 | < 5 | > 70 |  | Cn1cnnc1CC1(c2cccc(N3Cc4c(cc(N5CC6(CCN(C[C@H]7CC[C@H](OC8CCN(c9ccc%10c(c9Cl)CN(C9CCC(=O)NC9=O)C%10=O)CC8)CC7)CC6)C5)cc4C(F)(F)F)C3=O)c2)COC1 (stereo partly drawn) [Example 184, 3-[4-chloro-1-oxo-5-(4-{[(1r,4r)-4-({2-[2-(3-{3-[(4-methyl-4H-1,2,4-triazol-3-yl)methyl]oxetan-3-yl}phenyl)-3-oxo-7-(trifluoromethyl)-2,3-dihydro-1H-isoindol-5-yl]-2,7-diazaspiro[3.5]nonan-7-yl}methyl)cyclohexyl]oxy}piperidin-1-yl)-2,3-dihydro-1H-isoindol-2-yl]piperidine-2,6-dione]
4 | 5 to 50 | 35 to 70 |  | Cc1cc(N2CCC(CN3CC4(C3)CN(C3=CC5C(=O)N(c6cccc([C@]7(Cc8nncn8C)C[C@@H](C#N)C7)c6)CC5C(C(F)(F)F)=C3)C4)CC2)c(F)c2c1C(=O)N(C1CCC(=O)NC1=O)C2 (stereo partly drawn) [Example 189, (1r,3r)-3-(3-{6-[6-({1-[2-(2,6-dioxopiperidin-3-yl)-4-fluoro-7-methyl-1-oxo-2,3-dihydro-1H-isoindol-5-yl]piperidin-4-yl}methyl)-2,6-diazaspiro[3.3]heptan-2-yl]-1-oxo-4-(trifluoromethyl)-2,3,3a,7a-tetrahydro-1H-isoindol-2-yl}phenyl)-3-[(4-methyl-4H-1,2,4-triazol-3-yl)methyl]cyclobutane-1-carbonitrile]
5 | 5 to 50 | > 70 |  | Cc1cc(N2CCC(CN3CCC4(CC3)CN(c3cc5c(c(C(F)(F)F)c3)CN(c3cccc(C6(Cc7nncn7C)CCC6)c3)C5=O)C4)CC2)c(F)c2c1C(=O)N(C1CCC(=O)NC1=O)C2 (stereo not drawn) [Example 190, 3-{4-fluoro-7-methyl-5-[4-({2-[2-(3-{1-[(4-methyl-4H-1,2,4-triazol-3-yl)methyl]cyclobutyl}phenyl)-3-oxo-7-(trifluoromethyl)-2,3-dihydro-1H-isoindol-5-yl]-2,7-diazaspiro[3.5]nonan-7-yl}methyl)piperidin-1-yl]-1-oxo-2,3-dihydro-1H-isoindol-2-yl}piperidine-2,6-dione]
6 |  |  | > 500 | Cc1cc(N2C[C@H]3C[C@@H]2CN3CC2CCC3(CC2)CN(c2cc4c(c(C(F)(F)F)c2)CN(c2cccc([C@]5(Cc6nncn6C)C[C@@H](C#N)C5)c2)C4=O)C3)c(F)c2c1C(=O)N(C1CCC(=O)NC1=O)C2 (stereo partly drawn) [Example 150, 3-[3-[6-[7-[[(1R,4R)-5-[2-(2,6-dioxo-3-piperidyl)-4-fluoro-7-methyl-1-oxo-isoindolin-5-yl]-2,5-diazabicyclo [2.2.1]heptan-2-yl]methyl]-2-azaspiro [3.5]nonan-2-yl]-1-oxo-4-(trifluoromethyl)isoindolin-2-yl]phenyl]-3-[(4-methyl-1,2,4-triazol-3-yl)methyl]cyclobutanecarbonitrile]
7 |  |  | > 500 | Cn1cnnc1CC1(c2cccc(N3Cc4c(cc(CN5CCC(CN6CCC7(CC6)CN(c6cccc8c6CN(C6CCC(=O)NC6=O)C8=O)C7)CC5)cc4C(F)(F)F)C3=O)c2)COC1 (stereo not drawn) [Example 65, 3-(4-{7-[(1-{[2-(3-{3-[(4-methyl-4H-1,2,4-triazol-3-yl)methyl]oxetan-3-yl}phenyl)-3-oxo-7-(trifluoromethyl)-2,3-dihydro-1H-isoindol-5-yl]methyl}piperidin-4-yl)methyl]-2,7-diazaspiro[3.5]nonan-2-yl}-1-oxo-2,3-dihydro-1H-isoindol-2-yl)piperidine-2,6-dione]

More lines, now with the values behind:

Row | SMILES | DC50 (Cbl-b [1]) [nM] | Dmax (Cbl-b [1]) [%] | DC50 (Cbl-b [2]) [nM]
8 | Cn1cnnc1CC1(c2cccc(N3Cc4c(cc(N5CC(CC6CCN(c7ccc8c(c7)C(=O)N(C7CCC(=O)NC7=O)C8=O)CC6)C5)cc4C(F)(F)F)C3=O)c2)COC1 (stereo not drawn) [Example 133, 2-(2,6-dioxopiperidin-3-yl)-5-[4-({1-[2-(3-{3-[(4-methyl-4H-1,2,4-triazol-3-yl)methyl]oxetan-3-yl}phenyl)-3-oxo-7-(trifluoromethyl)-2,3-dihydro-1H-isoindol-5-yl]azetidin-3-yl}methyl)piperidin-1-yl]-2,3-dihydro-1H-isoindole-1,3-dione] | 5 to 50 | > 70 | 
9 | Cn1cnnc1CC1(c2cccc(N3Cc4c(cc(CN5CCN(CCCOc6ccc7c(c6)C(=O)N(C6CCC(=O)NC6=O)C7=O)CC5)cc4C(F)(F)F)C3=O)c2)COC1 (stereo not drawn) [Example 47, 2-(2,6-dioxopiperidin-3-yl)-5-[3-(4-{[2-(3-{3-[(4-methyl-4H-1,2,4-triazol-3-yl)methyl]oxetan-3-yl}phenyl)-3-oxo-7-(trifluoromethyl)-2,3-dihydro-1H-isoindol-5-yl]methyl}piperazin-1-yl)propoxy]-2,3-dihydro-1H-isoindole-1,3-dione] |  |  | > 500
10 | Cn1cnnc1CC1(c2cccc(N3Cc4c(cc(CN5CCC(C(C)(C)N6CCN(c7ccc8c(c7)C(=O)N(C7CCC(=O)NC7=O)C8=O)CC6)CC5)cc4C(F)(F)F)C3=O)c2)COC1 (stereo not drawn) [Example 59, 2-(2,6-dioxopiperidin-3-yl)-5-{4-[2-(1-{[2-(3-{3-[(4-methyl-4H-1,2,4-triazol-3-yl)methyl]oxetan-3-yl}phenyl)-3-oxo-7-(trifluoromethyl)-2,3-dihydro-1H-isoindol-5-yl]methyl}piperidin-4-yl)propan-2-yl]piperazin-1-yl}-2,3-dihydro-1H-isoindole-1,3-dione] |  |  | > 500
11 | Cn1cnnc1CC1(c2cccc(N3Cc4c(cc(CN5CCC(Cn6cccc(CN7CCC(=O)NC7=O)c6=O)CC5)cc4C(F)(F)F)C3=O)c2)COC1 [Example 55, 1-({1-[(1-{[2-(3-{3-[(4-methyl-4H-1,2,4-triazol-3-yl)methyl]oxetan-3-yl}phenyl)-3-oxo-7-(trifluoromethyl)-2,3-dihydro-1H-isoindol-5-yl]methyl}piperidin-4-yl)methyl]-2-oxo-1,2-dihydropyridin-3-yl}methyl)-1,3-diazinane-2,4-dione] |  |  | > 500
12 | Cn1cnnc1CC1(c2cccc(-n3cc4c(C(F)(F)F)cc(CN5CCC[C@H](CN6CCC[C@H](OC7CCN(c8ccc9c(c8F)CN(C8CCC(=O)NC8=O)C9=O)CC7)C6)C5)cc4n3)c2)COC1 (stereo partly drawn) [Example 258, 3-[4-fluoro-5-(4-{[(3S)-1-{[(3S)-1-{[2-(3-{3-[(4-methyl-4H-1,2,4-triazol-3-yl)methyl]oxetan-3-yl}phenyl)-4-(trifluoromethyl)-2H-indazol-6-yl]methyl}piperidin-3-yl]methyl}piperidin-3-yl]oxy}piperidin-1-yl)-1-oxo-2,3-dihydro-1H-isoindol-2-yl]piperidine-2,6-dione] |  |  | > 500
